From ChEMBL document CHEMBL1201862, “PubChem BioAssay data set” (2004) come the findings set out here.

Some test systems named below: IGROV-1; CAKI-1; UO-31; HCT-116; UACC-62; Malme-3M; HT-29; CCRF-CEM; HCT-15; SNB-19; M14; A498; SR; TK-10; HOP-62; KM12.
Holding throughout (assay): DTP human tumour cell line panel, 48 h

SMILES strings stand for the structures.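 Results reflect a 48-hour exposure of cells in 96-well plates to compound at five concentrations. The concentration for 50% growth inhibition is given as GI50.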 Calls of active or inactive are those of the source. Rule as the data show it: active = GI50 up to about 1.1 µM and inactive = higher.

In the case of `Cc1ccc(C)c(NC(=O)CC2C(=O)Nc3ccccc3S2(=O)=O)c1` (stereo not given), the GI50 in the assay on IGROV-1 was 52.8 µM (inactive); in the assay with CAKI-1 it was 31.8 µM (inactive); in the assay on UO-31, 49.7 µM (inactive); with HCT-116, 52.2 µM (inactive); with UACC-62, 46.2 µM (inactive); in the assay with Malme-3M, 31.5 µM (inactive). Besides, the GI50 is > 100 µM (inactive) in the assay on HT-29; > 100 µM (inactive) with CCRF-CEM; 87.9 µM in the assay on HCT-15; 75 µM (inactive) with SNB-19; 44.5 µM (inactive) with M14; 30.2 µM (inactive) with A498. The results for the GI50 in the assay with SR and in the assay on TK-10 were 61 µM (inactive) and > 100 µM (inactive), respectively.

In the case of `C1OC1C1CO1` (stereo not given), the GI50 in the assay on IGROV-1 was > 100 µM (inactive); with CAKI-1, > 100 µM (inactive); in the assay with UO-31, > 100 µM (inactive); with HCT-116 it was 95.1 µM (inactive); with UACC-62, 13.6 µM (inactive); in the assay on Malme-3M, > 100 µM (inactive). In addition, the GI50 was > 100 µM (inactive) in the assay with HT-29; 17.3 µM (inactive) in the assay with HOP-62; > 100 µM (inactive) in the assay on KM12; 3.34 µM (inactive) in the assay with CCRF-CEM; more than 100 µM in the assay on HCT-15; > 100 µM (inactive) in the assay with SNB-19. Besides, the figures for the GI50 in the assay with M14, with SR and in the assay with TK-10 were > 100 µM (inactive), 3.88 µM (inactive) and > 100 µM (inactive), respectively.

In the case of `O=c1[nH]c(Br)nc2c(Br)c[nH]c12`, the GI50 in the assay with IGROV-1, with CAKI-1, in the assay with UO-31, in the assay on HCT-116, in the assay with UACC-62 and in the assay on Malme-3M was > 100 µM (inactive) throughout. In addition, the GI50 in the assay on HT-29 is > 100 µM (inactive); with HOP-62, > 100 µM (inactive); with KM12, > 100 µM (inactive); in the assay with CCRF-CEM, > 100 µM (inactive); in the assay on HCT-15, more than 100 µM; in the assay with SNB-19, > 100 µM (inactive). Moreover, the GI50 in the assay on M14, with A498 and with TK-10 was > 100 µM (inactive) throughout.

Turning to `Nc1cc(=O)n(-c2ccccc2)c(=S)n1-c1ccccc1`, the GI50 in the assay with IGROV-1, with CAKI-1, in the assay with UO-31, with HCT-116, with UACC-62 and in the assay with Malme-3M was > 100 µM (inactive) throughout. Further, the GI50 is > 100 µM (inactive) in the assay with HT-29; > 100 µM (inactive) in the assay on HOP-62; > 100 µM (inactive) with KM12; > 100 µM (inactive) with CCRF-CEM; more than 100 µM in the assay on HCT-15; > 100 µM (inactive) in the assay on SNB-19. Also, the GI50 with M14, in the assay with A498 and in the assay on TK-10 was > 100 µM (inactive) each time.

For the compound `COc1ccc(C[C@H](N)C(=O)NC2C(CO)OC(n3cnc4c(N(C)C)ncnc43)C2O)cc1` (stereo not given in full), the concentration for 50% growth inhibition (GI50) in the assay on IGROV-1 is 0.451 µM (active); in the assay on UO-31, 2.68 µM (inactive); in the assay on HCT-116 it was 0.115 µM (active); in the assay with UACC-62, 0.152 µM (active); in the assay on Malme-3M, 0.524 µM (active); in the assay on HT-29, 0.262 µM (active). Besides, the GI50 in the assay on HOP-62 is 0.427 µM (active); in the assay with KM12 it was 0.262 µM (active); in the assay with CCRF-CEM, 0.145 µM (active); in the assay with HCT-15, 2.86 µM; in the assay with M14 it was 0.378 µM (active); with A498, 1.04 µM (active). The GI50 in the assay on SR is 0.138 µM (active); in the assay on TK-10 it was 0.67 µM (active).

For the compound `Cc1cc2c3ccccc3n3c2c2c1OC1(C)CCC(C2C1)C3(C)C` (stereo not given), the GI50 in the assay on IGROV-1, in the assay on UO-31, with HCT-116, in the assay with UACC-62, with Malme-3M and in the assay with HT-29 was > 25 µM (inactive) throughout. Moreover, the GI50 in the assay with HOP-62 is > 25 µM (inactive); in the assay with KM12 it was > 25 µM (inactive); with CCRF-CEM it was > 25 µM (inactive); in the assay on HCT-15 it was more than 25 µM; with SNB-19 it was > 25 µM (inactive); in the assay with M14 it was > 25 µM (inactive). The GI50 with SR and in the assay on TK-10 was > 25 µM (inactive) in each case.

Turning to `Cc1ccc(-n2c3nc(=O)n(C)c(=O)c-3nc3ccccc32)cc1`, the GI50 in the assay with IGROV-1 was 31.6 µM (inactive); in the assay on CAKI-1, 21.9 µM (inactive); with UO-31 it was 40.2 µM (inactive); with HCT-116 it was 19.1 µM (inactive); in the assay on UACC-62, 2.3 µM (inactive); in the assay with Malme-3M it was 13.8 µM (inactive). Further, the GI50 was 3.54 µM (inactive) in the assay with HT-29; 43.9 µM (inactive) in the assay with HOP-62; 17.3 µM (inactive) with KM12; 17.3 µM (inactive) with CCRF-CEM; 8.18 µM in the assay on HCT-15; 12.9 µM (inactive) in the assay with SNB-19. Moreover, the GI50 with M14 was 12.8 µM (inactive); with A498, 26.7 µM (inactive); in the assay on TK-10 it was 27.2 µM (inactive).

As for `CCOC(=O)C1CC/C(=C(/C#N)C(=O)OC)N1` (stereo not given), the GI50 with IGROV-1 is > 100 µM (inactive); in the assay on CAKI-1, > 100 µM (inactive); with UO-31, > 100 µM (inactive); with HCT-116 it was > 100 µM (inactive); with UACC-62, 31.8 µM (inactive); in the assay on HOP-62 it was > 100 µM (inactive). For the same compound, the GI50 with KM12 is > 100 µM (inactive); in the assay with CCRF-CEM, > 100 µM (inactive); with HCT-15 it was more than 100 µM; with SNB-19, > 100 µM (inactive); in the assay with M14 it was > 100 µM (inactive); in the assay on A498 it was > 100 µM (inactive). Also, the GI50 in the assay with SR and with TK-10 was > 100 µM (inactive) throughout.

As to `COc1ccc2nccc(C3=CCC4CCN(C(=O)c5ccccc5)C3C4)c2c1` (stereo not given), the GI50 in the assay on IGROV-1 is > 100 µM (inactive); in the assay with CAKI-1, > 100 µM (inactive); in the assay with UO-31, 40.7 µM (inactive); in the assay with HCT-116, > 100 µM (inactive); in the assay with UACC-62, > 100 µM (inactive); in the assay with Malme-3M it was > 100 µM (inactive). For the same compound, the GI50 is > 100 µM (inactive) with HT-29; > 100 µM (inactive) with HOP-62; > 100 µM (inactive) with KM12; 99.8 µM (inactive) with CCRF-CEM; more than 100 µM in the assay with HCT-15; > 100 µM (inactive) in the assay on SNB-19. Besides, the GI50 with M14, in the assay on A498 and with TK-10 was > 100 µM (inactive) each time.

Regarding `COCc1c(CO)cnc(C)c1OC1OC(CO)C(O)C(O)C1O` (stereo not given), the GI50 in the assay on IGROV-1, in the assay with CAKI-1, in the assay on UO-31, in the assay on HCT-116, in the assay with UACC-62 and with Malme-3M was > 100 µM (inactive) throughout. For the same compound, the GI50 with HT-29 was > 100 µM (inactive); in the assay with HOP-62, > 100 µM (inactive); with KM12, > 100 µM (inactive); with HCT-15 it was more than 100 µM; in the assay on SNB-19, > 100 µM (inactive); in the assay on M14 it was > 100 µM (inactive). The GI50 in the assay on A498 and in the assay with SR was > 100 µM (inactive) in each case.

As to `N#Cc1cc(NC(=O)c2ccccc2)c(=O)n2c1[nH]c1ccccc12`, the GI50 with IGROV-1 was 24.5 µM (inactive); in the assay with CAKI-1, 35.9 µM (inactive); in the assay with UO-31, 18.3 µM (inactive); in the assay with HCT-116 it was 21.4 µM (inactive); in the assay on UACC-62, 17.4 µM (inactive); with Malme-3M, 23.9 µM (inactive). Besides, the GI50 in the assay on HT-29 was 48.5 µM (inactive); in the assay on HOP-62 it was 24.5 µM (inactive); with KM12, 43.9 µM (inactive); in the assay with CCRF-CEM, 37.8 µM (inactive); with HCT-15, 31 µM; in the assay on SNB-19 it was 23.4 µM (inactive). In addition, the GI50 in the assay on M14 was 27.3 µM (inactive); in the assay on A498, 22.7 µM (inactive); in the assay with TK-10, 22.2 µM (inactive).

`Nc1nc(OCc2ccccc2)c2nc[nH]c2n1` [6-O-BENZYLGUANINE]: the GI50 with IGROV-1 is 64.6 µM (inactive); in the assay with CAKI-1, 23.1 µM (inactive); in the assay with UO-31, 25.9 µM (inactive); with HCT-116, 59.6 µM (inactive); with UACC-62 it was 44.2 µM (inactive); with Malme-3M, 87.9 µM (inactive). The GI50 was 87.3 µM (inactive) with HT-29; 51.6 µM (inactive) with HOP-62; 98.6 µM (inactive) with KM12; 66.8 µM (inactive) in the assay on CCRF-CEM; 57.1 µM in the assay with HCT-15; 129 µM (inactive) with SNB-19. The GI50 with M14 is 75.9 µM (inactive); in the assay on A498, 57.8 µM (inactive); in the assay on TK-10, 47.1 µM (inactive).

`CC1(C)CC(=O)C=C(NC(=O)c2ccccc2)C1`: the GI50 with IGROV-1, in the assay with CAKI-1, in the assay with UO-31, in the assay with HCT-116, in the assay on UACC-62 and with Malme-3M was > 100 µM (inactive) throughout. Also, the GI50 in the assay with HT-29 is > 100 µM (inactive); in the assay on HOP-62, > 100 µM (inactive); in the assay on KM12, > 100 µM (inactive); in the assay with CCRF-CEM it was > 100 µM (inactive); with HCT-15, more than 100 µM; in the assay on SNB-19, > 100 µM (inactive). Moreover, the GI50 with M14, in the assay with A498 and with TK-10 was > 100 µM (inactive) throughout.

As to `CC#CC#C/C=C1\C=CC2(OC=CC2O)O1` (stereo not given), the GI50 in the assay with IGROV-1 was > 16.7 µM (inactive); in the assay on CAKI-1 it was 14.8 µM (inactive); in the assay on UO-31 it was 12.2 µM (inactive); with HCT-116, 8.04 µM (inactive); with UACC-62, 9.59 µM (inactive); in the assay with Malme-3M, 10.4 µM (inactive). In addition, the GI50 with HT-29 is 7.91 µM (inactive); with HOP-62 it was > 23.3 µM (inactive); with KM12, 3.32 µM (inactive); with CCRF-CEM it was > 11.3 µM (inactive); with HCT-15, 7.4 µM; in the assay on SNB-19 it was > 23.3 µM (inactive). Besides, the GI50 in the assay with M14 is > 17.8 µM (inactive); with SR it was > 12.7 µM (inactive); in the assay with TK-10, > 23.3 µM (inactive).
